Earlier results on one molecule are cited in US20120183988A1, “INTEIN-BASED F[…]-CIRCUIT FOR VITAMIN D DETECTION” (priority 2009, published 2012).

For this series the following is noted: cited from reference 2 (Haddad and Stamp 1974).

Turning to `C=C1CC[C@H](O)C/C1=C/C=C1\CCC[C@]2(C)[C@@H]([C@H](C)CCCC(C)(C)O)CC[C@@H]12` [25(OH)D3, 25-hydroxyvitamin D3], the serum half-life entry was “ca. 3 weeks”.
